US10864216B2, “Phenothiazine diaminium salts and their use” (WisTa Laboratories Ltd., priority 2011, dated 2020)

Assays:
[1] = Solubility of LMT salts in aqueous HCl solutions at 37° C.; assay type: physicochemical; details: aqueous HCl solution pH 2.00 (21.4° C.); lower limit complete dissolution, upper limit saturation
Method: Two aqueous solutions (pH 2.00 and 3.01 at 21.4° C.) were prepared by carefully adding HCl (5 M) to deionised water. In each experiment a 5 ml aliquot of one of the aforementioned solutions was heated to 37° C. […] This step was repeated until no further dissolution took place.

female Wistar rats = experiment: 14 day oral administration to rats: toxicology and neutrophil response; assay type: in vivo
Text: Table: Neutrophil response in rats following 14 day oral administration of different salt forms of LMT.

[2] = molecular target: T1, truncated tau (amino acids 297-391) in solution binding to solid-phase bound truncated tau (residues 297-390) (Homo sapiens, UniProt P10636); experiment: Solid phase assay for tau aggregation (tau-tau binding, B50); details: concentration at which tau-tau binding is decreased by 50%; mean ± SE
T1 construct: made in house
T1 sequence (P10636 614-708): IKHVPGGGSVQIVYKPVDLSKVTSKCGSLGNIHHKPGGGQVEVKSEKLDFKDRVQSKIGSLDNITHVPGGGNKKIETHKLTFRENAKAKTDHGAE
T1 sequence (P10636 614-707): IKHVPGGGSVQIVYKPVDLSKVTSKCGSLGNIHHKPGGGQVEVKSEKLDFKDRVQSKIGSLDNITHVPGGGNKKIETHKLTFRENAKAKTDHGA
Text: The tau-tau aggregation assay uses purified recombinant tau fragments in a solid-phase immunoassay. Methods are described in detail in e.g. WO 96/30766. Briefly, the assay measures the binding of truncated tau (amino acids 297-391) in solution to solid-phase bound truncated tau (residues 297-390). Binding of the former is detected with the antibody mAb 423, which specifically recognises peptides containing a C-terminal Glu-391 residue. The Tau complex formed in vitro is similar to the aggregated complex that forms in Alzheimer's disease as a consequence of the stability of the pathological Tau-Tau binding interaction through a 94/95-amino acid repeat domain (residues 297-390), found in the proteolytically stable core of the paired helical filament.
The B50 value (expressed as mean±SE) is determined as the concentration of compound at which tau-tau binding is decreased by 50%.

[3] = pH dependence of solubility of LMT.2MsOH in buffered aqueous solutions at 25° C.; assay type: physicochemical; details: aqueous buffer, thermodynamic from solid
Method: In related experiments three buffered stock solutions were prepared (pH 2, pH 3, and pH 7) as follows: A solution of (0.2 M) potassium chloride (KCl) (0.745 g in 50 mL of deionised water) was initially prepared. From this solution 50 mL was taken and diluted with approximately 80 mL of deionised water. A (0.2 M) hydrochloric acid (HCl) solution was then used to adjust the pH to 2, before further dilution with deionised water to make up to 200 mL. A final pH of 2.00 at 21.6° C. was recorded. A solution of (0.1 M) potassium hydrogen phthalate (2.042 g in 100 mL of deionised water) was initially prepared. From this solution 100 mL was taken and diluted with approximately 50 mL of deionised water. A 0.2 M HCl solution was then used to adjust the pH to 3, before further dilution with deionised water to make up to 200 mL. A final pH of 2.99 at 21.7° C. was recorded. A solution of (0.1 M) potassium phosphate monobasic (KH2PO4) (1.370 g in 100 mL of deionised water) was initially prepared. From this solution 100 mL was taken and diluted with approximately 80 mL of deionised water. A 0.5 M sodium hydroxide (NaOH) solution was then used to adjust the pH to 7, before further dilution with deionised water to make up to 200 mL. A final pH of 7.07 at 22° C. was recorded. […] This vial was placed into a water bath set at 25° C. To the solution was added LMT.2MsOH in 1-1.5 g portions. After each addition, a 10 minutes stir time was allowed to ensure maximum opportunity for dissolution. The homogeneity of the mixture was judged by eye. If solid was still present, after the stir time, as judged by visual inspection, the saturation point was judged to have been reached. The viscosity of the resulting mixtures precluded adequate isolation of the excess solid, therefore it was not possible to determine exact solubility values.

[4] = test system: rat, stomach (non glandular); experiment: Gastric irritation: 28-day rat study with LMT.2MsOH; assay type: in vivo; design: key to Gastritis, grade 2 (slight): incidence / Gastritis, grade 3 (moderate): incidence / Gastritis, total incidence / Inflammatory cell infiltration, grade 1 (minimal): incidence / Inflammatory cell infiltration, grade 2 (slight): incidence / Gastritis, grade 1 (minimal): incidence: “—” = finding not present; 1 = minimal; 2 = slight; 3 = moderate; 4 = moderately severe; 5 = severe; details: for Gastritis, total incidence / Gastritis, grade 1 (minimal): incidence / Gastritis, grade 2 (slight): incidence / Gastritis, grade 3 (moderate): incidence / Inflammatory cell infiltration, grade 1 (minimal): incidence / Inflammatory cell infiltration, grade 2 (slight): incidence: 90 mg/kg/day, 28-day, 10 examined; for Gastritis, total incidence: number of animals; for Gastritis, grade 1 (minimal): incidence / Gastritis, grade 2 (slight): incidence / Gastritis, grade 3 (moderate): incidence / Inflammatory cell infiltration, grade 1 (minimal): incidence / Inflammatory cell infiltration, grade 2 (slight): incidence: terminal kill, cell = number of animals
Text: Study (28-day rat study with LMT.2MsOH): Incidence and severity of selected microscopic findings in sternum, liver, spleen and stomach from terminal animals

[5] = molecular target: full-length human tau protein (htau40) and truncated tau (295-390, dGA) in 3T6 mouse cells (Homo sapiens, UniProt P10636); experiment: Cell-based tau aggregation assay
rats = experiment: Studies on the hemopoietic system (methemoglobinemia), rat; assay type: in vivo
[6] = Pharmacokinetics: plasma concentration of the MT moiety in pig; assay type: in vivo; details: oral doses 2 and 15 mg/kg
minipigs = experiment: Studies on the hemopoietic system (methemoglobinemia), minipig; assay type: in vivo
Method: Studies on the hemopoietic system were performed in rat, monkey and minipig.

[7] = Dynamic vapour sorption (DVS); assay type: physicochemical; details: crystalline, 25° C., relative humidity range between 0% and 70%
Method: FIGS. 15a and 15b show the dynamic vapour sorption (DVS) curve for crystalline LMT.2MsOH measured at 25° C. with 5%/h scanning rate. The horizontal dashed lines indicate steps of water uptake of one equivalent. […] Above this r.h., the water uptake increased rapidly, and the sample ultimately deliquesced. Upon drying, the water content decreased again to approximately 4 equiv. at 50% r.h.
Projekt Messtechnik SPS 11-100n water vapor sorption analyzer. The samples were placed in aluminum crucibles on top of a microbalance and were equilibrated at 25° C. and 50% r.h. before starting a pre-defined humidity program at 25° C. (50-0-95-50% r.h., scanning with Δ r.h.=5% h^−1 and with ‘isohumid’ equilibration periods at the extreme values).

## CN(C)c1ccc2c(c1)Sc1cc(N(C)C)ccc1N2.CS(=O)(=O)O.CS(=O)(=O)O [LMT.2MsOH, N,N,N′,N′-tetramethyl-10H-phenothiazine-3,7-diaminium bis(methanesulfonate)]
[1]
  Solubility g/5 ml (37° C.): 8.825-9.943 g/5 ml
Female Wistar rats; 14 days
  Neutropaenia in prepared blood smears (mature neutrophils): no decrease
Female Wistar rats; 14 days oral, 95 mg MT/kg/day Days 1-10, 60 mg MT/kg/day Days 11-14
  Neutrophils (total neutrophils as percentage of total white cells): 18.30%
Female Wistar rats; 14 days oral, animal numbers per group of 8 rats
  Dose-related deaths: 0/8
Female Wistar rats; 14 days oral, animals per group of 8
  Early neutrophils (frequency of presence of immature neutrophils per animal group): 1/8
[2]
  IC50: 238 ± 74.2 µM
[3]; buffered aqueous solution pH 2.00, 25° C.
  solubility at 10 min: 1600 to 1770 mg/mL
[3]; buffered aqueous solution pH 2.99, 25° C.
  solubility at 10 min: 1980 to 2090 mg/mL
[3]; buffered aqueous solution pH 7.07, 25° C.
  solubility at 10 min: 2030 to 2110 mg/mL
[4]; 28-day rat studies
  Gastric irritation compared with LMT.2HBr: less gastric irritation
[4]; female rats
  Gastritis, total incidence: 3
  Gastritis, grade 1 (minimal): incidence: —
  Gastritis, grade 2 (slight): incidence: 2
  Gastritis, grade 3 (moderate): incidence: 1
  Inflammatory cell infiltration, grade 1 (minimal): incidence: 4
  Inflammatory cell infiltration, grade 2 (slight): incidence: 1
[4]; male rats
  Gastritis, total incidence: 2
  Gastritis, grade 1 (minimal): incidence: —
  Gastritis, grade 2 (slight): incidence: 2
  Gastritis, grade 3 (moderate): incidence: —
  Inflammatory cell infiltration, grade 1 (minimal): incidence: 4
  Inflammatory cell infiltration, grade 2 (slight): incidence: —
[5]
  EC50: 0.19 ± 0.04 µM
  therapeutic index greater compared with MTC: 63%
[5]; LD50/EC50
  THx, therapeutic index (THx = LD50/EC50): 179
rats
  Lowest dose at which methemoglobinemia was observed: 30 mg MT/kg/day
[6]
  Cmax of MT moiety in plasma, fold greater than that for LMT.2HCl or LMT.2HBr: more than 2 fold
[6]; plasma
  Tmax: 1 h
minipigs
  Lowest dose at which methemoglobinemia was observed: 10 mg MT/kg/day
minipigs; 3 mg MT/kg/day, first 28-days of dosing in the 9-month study
  Methemoglobinemia: no indications of methemoglobinemia
[7]
  Weight change in dynamic vapour sorption: less than 0.5%
